Data set [1] can be described thus: Cytotoxicity against human QSG7701 cells after 24 hrs by MTT assay. The note with it: QSG7701, 24 h. The data set is classed as cell-based.
Data set [2] has as its system HepG2. The data set can be described thus: Cytotoxicity against human HepG2 cells after 24 hrs by MTT assay. The note with it: HepG2, 24 h. The data set is classed as functional, cell-based.
A short description of data set [3]: Cytotoxicity against human FHCC-98 cells after 24 hrs by MTT assay. The data set is classed as functional, cell-based. The following applies: FHCC-98, 24 h.
For data set [4], the system named is HepG2. The data set can be described thus: Cell cycle arrest in human HepG2 cells assessed as accumulation at S phase at 50 uM after 24 hrs by FACS analysis (reference value: 29.5 %). The data set is classed as functional.
Data set [5] has as its system FHCC-98. The data set can be described thus: Inhibition of human FHCC-98 cell adhesion to matrigel-coated plates at 100 uM after 30 to 60 mins by crystal violet staining-based spectrophotometry. The data set is classed as functional.
In data set [6] the test system is HepG2. Briefly: Cell cycle arrest in human HepG2 cells assessed as accumulation at subG0 phase at 50 uM after 24 hrs by FACS analysis relative to control. The data set is classed as functional.
The test system of data set [7] is HepG2. Briefly: Cell cycle arrest in human HepG2 cells assessed as accumulation at G0/G1 phase at 50 uM after 24 hrs by FACS analysis (reference value: 53.7 %). The data set is classed as functional.
Data set [8] deals with FHCC-98. The data set can be described thus: Inhibition of human FHCC-98 cell adhesion to matrigel-coated plates at 50 uM after 30 to 60 mins by crystal violet staining-based spectrophotometry. The data set is classed as functional.
The test system of data set [9] is HepG2. Briefly: Cell cycle arrest in human HepG2 cells assessed as accumulation at G2/M phase at 50 uM after 24 hrs by FACS analysis (reference value: 16.8 %). The data set is classed as functional.
Data set [10] deals with HepG2. The data set can be described thus: Induction of apoptosis in human HepG2 cells assessed as increase in caspase 3 activation using Ac-DEVD-pNA as substrate at 10 uM after 12 hrs by colorimetry relative to control. The data set is classed as functional.
Data set [11] deals with HepG2. The data set can be described thus: Cell cycle arrest in human HepG2 cells assessed as accumulation at S phase at 30 uM after 32 hrs by FACS analysis (reference value: 29.5 %). The data set is classed as functional.
Data set [12] deals with HepG2. The data set can be described thus: Cell cycle arrest in human HepG2 cells assessed as accumulation at G0/G1 phase at 30 uM after 24 hrs by FACS analysis (reference value: 53.7 %). The data set is classed as functional.
Data set [13] deals with HepG2. The data set can be described thus: Induction of apoptosis in human HepG2 cells assessed as down-regulation of Bcl-2 at 30 uM by Western blotting analysis. The data set is classed as functional, cell-based. The following applies: TDE = time-dependent effect.
The test system of data set [14] is HepG2. Briefly: Upregulation of Cdc-2 in human HepG2 cells at 30 to 50 uM after 24 hrs by Western blotting analysis. The data set is classed as functional, cell-based.
Data set [15] has as its system HepG2. Briefly: Cell cycle arrest in human HepG2 cells assessed as accumulation at G0/G1 phase at 30 uM after 32 hrs by FACS analysis (reference value: 53.7 %). The data set is classed as functional.
Data set [16] relates to HepG2. Briefly: Cell cycle arrest in human HepG2 cells assessed as accumulation at subG0 phase at 30 uM after 12 hrs by FACS analysis relative to control. The data set is classed as functional.
For data set [17], the system named is HepG2. The data set can be described thus: Cell cycle arrest in human HepG2 cells assessed as accumulation at G2/M phase at 30 uM after 24 hrs by FACS analysis (reference value: 16.8 %). The data set is classed as functional.
The nature of data set [18]: Induction of apoptosis in human QSG7701 cells assessed as Bax activation at 30 uM after 24 hrs by immunostaining. The data set is classed as cell-based. The note with it: qsg7701, 24 h.
Data set [19] concerns HepG2. Briefly: Induction of apoptosis in human HepG2 cells assessed as Bax activation at 30 uM after 24 hrs by immunostaining. The data set is classed as functional, cell-based.
Data set [20] can be described thus: Induction of apoptosis in human QSG7701 cells assessed as increase in caspase 3 activation using Ac-DEVD-pNA as substrate at 30 uM after 12 hrs by colorimetry relative to control. The data set is classed as cell-based. The following applies: qsg7701, 12 h.
The test system of data set [21] is HepG2. The data set can be described thus: Induction of apoptosis in human HepG2 cells assessed as nuclear fragmentation at 30 uM after 24 hrs by immunostaining. The data set is classed as functional, cell-based.
The subject of data set [22] is HepG2. Briefly: Cell cycle arrest in human HepG2 cells assessed as accumulation at S phase at 30 uM after 24 hrs by FACS analysis (reference value: 29.5 %). The data set is classed as functional.
Data set [23] concerns HepG2. The data set can be described thus: Cell cycle arrest in human HepG2 cells assessed as accumulation at G2/M phase at 30 uM after 12 hrs by FACS analysis (reference value: 16.8 %). The data set is classed as functional.
In data set [24] the test system is HepG2. The data set can be described thus: Induction of apoptosis in human HepG2 cells assessed as increase in caspase 3 activation using Ac-DEVD-pNA as substrate at 30 uM after 12 hrs by colorimetry relative to control. The data set is classed as functional.
For data set [25], the system named is HepG2. Briefly: Induction of apoptosis in human HepG2 cells assessed as chromatin condensation at 30 uM after 24 hrs by immunostaining. The data set is classed as functional, cell-based.
Data set [26] relates to HepG2. The data set can be described thus: Upregulation of cyclin B1 in human HepG2 cells at 30 to 50 uM after 24 hrs by Western blotting analysis. The data set is classed as functional, cell-based.
The subject of data set [27] is HepG2. The data set can be described thus: Upregulation of cyclin B1 in human HepG2 cells at 30 uM after 12 to 32 hrs by Western blotting analysis. The data set is classed as functional, cell-based.
Data set [28] concerns HepG2. Briefly: Induction of apoptosis in human HepG2 cells assessed as PARP cleavage at 30 uM by Western blotting analysis. The data set is classed as functional, cell-based. The note with it: TDE = time-dependent effect.
For data set [29], the system named is HepG2. The data set can be described thus: Cell cycle arrest in human HepG2 cells assessed as accumulation at G2/M phase at 30 uM. The note with it: TDE = time-dependent effect. The data set is classed as functional, cell-based.
The test system of data set [30] is HepG2. Briefly: Cell cycle arrest in human HepG2 cells assessed as accumulation at G2/M phase at 30 uM after 32 hrs by FACS analysis (reference value: 16.8 %). The data set is classed as functional.
Data set [31] relates to HepG2. Briefly: Induction of apoptosis in human HepG2 cells assessed as up-regulation of Bax at 30 uM by Western blotting analysis. The note with it: TDE = time-dependent effect. The data set is classed as functional, cell-based.
The subject of data set [32] is HepG2. The data set can be described thus: Induction of apoptosis in human HepG2 cells assessed as cell shrinkage at 30 uM after 24 hrs by phase-contrast microscopy. The data set is classed as functional, cell-based.
Data set [33] concerns HepG2. The data set can be described thus: Cell cycle arrest in human HepG2 cells assessed as accumulation at S phase at 30 uM after 12 hrs by FACS analysis (reference value: 29.5 %). The data set is classed as functional.
For data set [34], the system named is HepG2. Briefly: Cell cycle arrest in human HepG2 cells assessed as accumulation at subG0 phase at 30 uM after 24 hrs by FACS analysis relative to control. The data set is classed as functional.
Data set [35] concerns HepG2. Briefly: Cell cycle arrest in human HepG2 cells assessed as accumulation at subG0 phase at 30 uM after 32 hrs by FACS analysis relative to control. The data set is classed as functional.
Data set [36] concerns HepG2. Briefly: Cell cycle arrest in human HepG2 cells assessed as accumulation at G0/G1 phase at 30 uM after 12 hrs by FACS analysis (reference value: 53.7 %). The data set is classed as functional.
The test system of data set [37] is HepG2. Briefly: Upregulation of Cdc-2 in human HepG2 cells at 30 uM after 12 to 32 hrs by Western blotting analysis. The data set is classed as functional, cell-based.

The structures appear in SMILES notation. Activity calls are given as the source filed them. The calls are words filed in the database; no cut-off is given here.

On to `COc1c(O)cccc1/C=C/c1cc(O)cc(O)c1` [PHOYUNBENE E], for which the IC50 (in data set [1]; in the data set with HepG2 [2]; in [3]) was over 100 µM each time.

For the compound `Oc1cccc(/C=C/c2cc(O)cc(O)c2)c1`, the IC50 in data set [1] was over 100 µM; in the data set on HepG2 [2], 95.8 µM; in data set [3], over 100 µM.

As for `Oc1ccc(/C=C/c2cc(O)cc(O)c2)cc1` [RESVERATROL], the Activity with HepG2 [4] was 56.3%; in the data set on HepG2 [6] it was 0%; with HepG2 [7] it was 31.9%; in the data set with HepG2 [9], 11.7%. For the same compound, the IC50 in data set [1] was over 100 µM; in the data set with HepG2 [2] it was 80.3 µM; in data set [3], 95.2 µM. For the same compound, the inhibition entry in the data set with FHCC-98 [5] and in the data set on FHCC-98 [8] was “Active” each time.

Take `CC[C@@]1(O)C(=O)OCc2c1cc1n(c2=O)Cc2cc3ccccc3nc2-1` [CAMPTOTHECIN]: the IC50 came out at 18.3 µM in data set [1], 6.4 µM in the data set on HepG2 [2] and 15.2 µM in data set [3]. In addition, in the data set with HepG2 [10], the “fold change (FC)” value was found to be 4.

Regarding `COc1cc(O)cc(/C=C/c2cccc(OC)c2OC)c1` [PHOYUNBENE D], the IC50 in data set [1] is over 100 µM; with HepG2 [2] it was over 100 µM; in data set [3], 80.5 µM.

As to `COc1cc(O)cc(/C=C/c2ccc(O)c(OC)c2OC)c1` [PHOYUNBENE B], the Activity with HepG2 [11] is 7.9%; in the data set on HepG2 [12] it was 17.7%; in the data set on HepG2 [13], “tde”; in the data set with HepG2 [15] it was 4.6%; in the data set with HepG2 [16], 0%; in the data set on HepG2 [17], 62.8%. Further, the Activity entry in [18] is “Non-toxic”; in data set [20], “Non-toxic”; with HepG2 [22], 13%; in the data set with HepG2 [23], 41.3%; with HepG2 [28], “tde”; with HepG2 [29], “tde”. The Activity with HepG2 [30] was 75.2%; in the data set on HepG2 [31], “tde”; in the data set with HepG2 [33] it was 20.5%; in the data set on HepG2 [34], 6.5%; in the data set with HepG2 [35] it was 12.3%; in the data set on HepG2 [36], 38.2%. For the same compound, the IC50 in data set [1] is over 100 µM; in the data set on HepG2 [2], 37.1 µM; in data set [3] it was 45.8 µM. The inhibition result in the data set with FHCC-98 [5] and in the data set with FHCC-98 [8] was “Active” throughout. Moreover, the outcome with HepG2 [14] and in the data set with HepG2 [37] was inactive. In addition, the outcome in the data set with HepG2 [19], with HepG2 [21], in the data set with HepG2 [25], in the data set with HepG2 [26], in the data set with HepG2 [27] and in the data set with HepG2 [32] was Active. In the data set on HepG2 [24], the “fold change (FC)” value was 5.

Regarding `COc1cc(O)cc(/C=C/c2ccc(OC)c(O)c2OC)c1` [PHOYUNBENE A], the IC50 (in data set [1]; in the data set with HepG2 [2]; in data set [3]) was over 100 µM each time.

Regarding `COc1cc(O)cc(/C=C/c2cccc(O)c2OC)c1` [PHOYUNBENE C], the IC50 in [1] was over 100 µM; in the data set on HepG2 [2] it was 90.8 µM; in data set [3], over 100 µM.

Take `COc1cc(O)cc(/C=C/c2cccc(O)c2O)c1` [PHOYUNBENE F]: the 50% inhibitory concentration (IC50) (in data set [1]; with HepG2 [2]; in [3]) was over 100 µM in each case.

For the origin of these results see ChEMBL document CHEMBL2010666, “A resveratrol analog, phoyunbene B, induces G2/M cell cycle arrest and apoptosis in HepG2 liver cancer cells” (Bioorg Med Chem Lett, 2012).
